# Assay results: patent publication US20060117411A1, “Enhancing plant pathogen resistance via increasing BiP levels” (priority 1998, published 2006)
# Key:
# BiP protein levels = experiment: SA spraying of tobacco plants, protein gel blot of BiP; assay type: in vivo, Nicotiana tabacum; settings: sprayed with SA 5 mM
# Protocol: It has been shown that SA is involved in the induction of PR genes (reviewed by Malamy and Klessig, 1992) and that this signal molecule also induces the expression of ER chaperones (Denecke et al, 1995). We wanted to investigate whether ER chaperone induction is a consequence of the high synthesis rates of PR genes and used BiP as a model system. Tobacco plants were sprayed with SA (5 mM) and the exact timing of the SA-mediated induction of PR-gene PRI was compared to that of BiP. PR1 was chosen as a representative marker for SA-mediated induction of PR genes as its response to SA is faster and more pronounced than that of acidic chitinase, basic chitinase and basic β-1.3 glucanase (Vidal et al, 1997). […] In contrast SA-induced transcription of PR1 starts only after 6-8 hours and continues to accumulate upto 16 hours after treatment. At this time-point, BiP mRNA levels start to decrease again. […]
# Fully expanded leaves were collected and quickly frozen in liquid nitrogen. […] Protein concentrations were determined using Bio-Rad protein assay reagent
# Proteins in SDS-polyacrylamide gels were transferred onto a nitrocellulose membrane and then blocked with PBS, 0.5% Tween 20, and 5% milk powder for 1 hr. […] Detection of antigen-antibody complexes was performed with enhanced chemiluminescence (ECL, Amersham Corp), and the images were recorded on film.
# BiP mRNA = experiment: Treatment of Arabidopsis WT and saiI mutant, Northern blot of BiP; assay type: in vivo, Arabidopsis thaliana; settings: Arabidopsis saiI mutant vs wild-type, SA 5 mM
# Protocol: WT and saiI mutants of the same ecotype were treated with cell wall-degrading enzymes and incubated for 6 hours. As a control (con), leaves were mock-infected with H2O. Total RNA was extracted and Northern blot analysis was performed for BiP and a hevein-like protein (Hel) which is known to be induced by CDEs of Erwinia carotovora (Vidal et al, in preparation).
# WT and saiI mutants of the same ecotype were sprayed with SA (5 mM) and incubated in the light. Total RNA was extracted and probed with the PR1 and BiP gene from Arabidopsis. The induction of PR1 in WT Arabidopsis was detected 3 hours after SA-treatment and continued to increase until 8 hours (FIG. 10). […] As in tobacco plants, BiP mRNA levels increase prior to PR1 transcripts in SA treated Arabidopsis plants (FIG. 10) and diminish after prolonged incubations (data not shown).
# Plants of Nicotiana tabacum cultivar Petit Havana (Maliga et al., 1973) were axenically grown in MS medium (Murashige and Skoog, 1962), 2% Sucrose in a temperature controlled room at 25° C. with a 16 h day/[…] regime and a light irradiance of 200 μE.m^−2.s^−1. Arabidopsis thaliana Nössen WT and saiI plants (Shah et al., 1997) were grown under the same conditions.
# Protoplasts RNAs were extracted as described by Jones et al., (1985). […]
# BiP gene expression = experiment: Leaf treatment of tobacco plants, Northern blot of BiP transcripts in treated (local) and untreated (systemic) leaves; assay type: in vivo, Nicotiana tabacum; settings: after 3 and 8 hours; tunicamycin 0.02 mM
# Text: We have shown that treatment of tobacco plants with cell wall-degrading enzymes (CDE) leads to the rapid induction of β-1,3-glucanase and other PR genes, both locally and systemically (Vidal et al, 1997). […] We used a commercial preparation of fungal CDEs instead of custom made Erwinia-derived hydrolases to increase reproducibility. […] This induction was observed locally as well systemically with the same timing and intensity. β-1,3-glucanase transcript accumulation is detectable only after 4 hours of incubation and reaches its plateau after 8 hours as described previously (Vidal et al, 1997). Whereas BiP induction is transient, β-1,3-glucanase mRNA levels continue to be high after prolonged incubation times (24-48 hours). […] The signal involved in the systemic response of BiP gene expression must therefore be transported very rapidly from the local leaf to the distal leaves.
# Even though BiP induction occurs prior to β-1,3 glucanase induction, we cannot rule out that other, as yet unidentified defence related proteins are induced more rapidly and perhaps before BiP in our experimental system. If this were the case, it would still be possible that the rapid induction of BiP is the result of a feedback mechanism due to ER stress resulting from the increased synthesis of proteins on the rough ER, the unfolded protein response (UPR). […]
Compound,time of induction after which a significant increase of BiP protein levels is noticeable (BiP protein levels),BiP mRNA levels in saiI mutants during SA-treatment (BiP mRNA),BiP mRNA levels in the treated leaf (BiP gene expression)
"O=C(O)c1ccccc1O [SA, Salicylic Acid]",4 to 6 h,exactly the same induction pattern as in the wild-type plant,
tunicamycin,,,strong increase
